In patent US20080009418A1, “Selective Inhibitors” (Alchemia LTD., priority 2004, published 2008):

Key:
Human δ-opioid (DOP) = molecular target: T1, Human δ-opioid (DOP) (Homo sapiens, UniProt P41143); assay: Radioligand binding, human δ-opioid (DOP) membranes, FlashPlate, [3H]-Bremazocine; details: compound at 10 μM; for A1: inhibition of radioligand binding, human δ-opioid (DOP): [3H]-Bremazocine
T1 construct: purchased Perkin Elmer Biosignal
Outline: (§1)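 Cloned human receptor membranes were coated onto FlashPlate wells and incubated with radioligand and compound (added from a 0.5 mM DMSO daughter plate) for 1 hour at room temperature in the dark. Scintillation counting gave percent inhibition, with DMSO defining total and reference ligand defining non-specific binding.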

Human κ-Opioid (KOP) = molecular target: T2, Human κ-Opioid (KOP) (Homo sapiens, UniProt P41145); assay: Radioligand binding, human κ-opioid (KOP) membranes, filtration, [3H]-Diprenorphine; details: compound at 10 μM; for A2: inhibition of radioligand binding, human κ-opioid (KOP): [3H]-Diprenorphine
T2 construct: purchased Perkin Elmer Biosignal
Outline: (§2)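 Filtration binding on cloned human receptor membranes (1 Unit/well), [125I]-Substance P for NK1 and [3H]-Diprenorphine for KOP, 1 h at room temperature. Filters PEI-presoaked, washed with cold 50 mM Tris-HCl pH 7.4, counted by scintillation; percent inhibition calculated, reference ligand defining non-specific binding.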

Human Melanocortin (MC3) = molecular target: T3, Human Melanocortin (MC3) (Homo sapiens, UniProt P41968); assay: Radioligand binding, human melanocortin MC3 membranes, FlashPlate, [125I]-NDP-αMSH; details: compound at 10 μM; for A3: inhibition of radioligand binding, human melanocortin (MC3): [125I]-NDP-αMSH
T3 construct: purchased Perkin Elmer Biosignal
Outline: as §1

Human Melanocortin (MC4) = molecular target: T4, Human Melanocortin (MC4) (Homo sapiens, UniProt P32245); assay: Radioligand binding, human melanocortin MC4 membranes, FlashPlate, [125I]-NDP-αMSH; details: compound at 10 μM; for A4: inhibition of radioligand binding, human melanocortin (MC4): [125I]-NDP-αMSH
T4 construct: purchased Perkin Elmer Biosignal
Outline: as §1

Human melanocortin (MC5) = molecular target: T5, Human melanocortin (MC5) (Homo sapiens, UniProt P33032); assay: Radioligand binding, human melanocortin MC5 membranes, FlashPlate, [125I]-NDP-αMSH; details: compound at 10 μM; for A5: inhibition of radioligand binding, human melanocortin (MC5): [125I]-NDP-αMSH
T5 construct: purchased Perkin Elmer Biosignal
Outline: as §1

[1] = molecular target: T6, Human melanin-concentrating hormone (MCH1) (Homo sapiens, UniProt Q99705); assay: Radioligand binding, human melanin-concentrating hormone MCH1 membranes, FlashPlate, [125I]-S36057; details: compound at 10 μM; for A6: inhibition of radioligand binding, human melanin-concentrating hormone (MCH1): [125I]-S36057
T6 construct: purchased Perkin Elmer Biosignal
Outline: as §1

Human μ-opioid (MOP) = molecular target: T7, Human μ-opioid (MOP) (Homo sapiens, UniProt P35372); assay: Radioligand binding, human μ-opioid (MOP) membranes, FlashPlate, [3H]-Naloxone; details: compound at 10 μM; for A7: inhibition of radioligand binding, human μ-opioid (MOP): [3H]-Naloxone
T7 construct: purchased Perkin Elmer Biosignal
Outline: as §1

Human neurokinin (NK1) = molecular target: T8, Human neurokinin (NK1) (Homo sapiens, UniProt P25103); assay: Radioligand binding, human neurokinin NK1 membranes, filtration, [125I]-Substance P; details: compound at 10 μM; for A8: inhibition of radioligand binding, human neurokinin (NK1): [125I]-Substance P
T8 construct: purchased Perkin Elmer Biosignal
Outline: as §2

[2] = molecular target: T9, Human neuropeptide Y (NPY-Y1) (Homo sapiens, UniProt P25929); assay: Radioligand binding, human neuropeptide Y NPY-Y1 membranes, FlashPlate, [125I]-PYY; details: compound at 10 μM; for A9: inhibition of radioligand binding, human neuropeptide Y (NPY-Y1): [125I]-PYY
T9 construct: purchased Perkin Elmer Biosignal
T9 sequence (P25929 1-384): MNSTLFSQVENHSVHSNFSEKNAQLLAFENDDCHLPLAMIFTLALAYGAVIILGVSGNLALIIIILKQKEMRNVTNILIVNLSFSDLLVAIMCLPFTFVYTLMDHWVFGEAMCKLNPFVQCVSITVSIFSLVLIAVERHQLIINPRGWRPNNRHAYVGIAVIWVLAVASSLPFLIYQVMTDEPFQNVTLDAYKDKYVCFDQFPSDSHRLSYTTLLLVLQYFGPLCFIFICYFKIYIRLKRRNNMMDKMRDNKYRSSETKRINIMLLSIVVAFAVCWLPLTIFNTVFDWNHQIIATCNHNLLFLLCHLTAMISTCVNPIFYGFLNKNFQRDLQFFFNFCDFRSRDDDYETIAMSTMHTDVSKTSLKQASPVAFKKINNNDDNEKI
Outline: as §1

Human opioid (ORL1) = molecular target: T10, Human opioid (ORL1) (Homo sapiens, UniProt P41146); assay: Radioligand binding, human opioid ORL1 membranes, FlashPlate, [125I]-Nociceptin; details: compound at 10 μM; for A10: inhibition of radioligand binding, human opioid (ORL1): [125I]-Nociceptin
T10 construct: purchased Perkin Elmer Biosignal
Outline: as §1

Mouse urotensin (mUR2) = molecular target: T11, Mouse urotensin (mUR2) (Mus musculus, UniProt Q8VIH9); assay: Radioligand binding, mouse urotensin mUR2 membranes, FlashPlate, [125I]-Urotensin II; details: compound at 10 μM; for A11: inhibition of radioligand binding, mouse urotensin (mUR2): [125I]-Urotensin II
T11 construct: purchased Perkin Elmer Biosignal
T11 sequence (Q8VIH9 1-385): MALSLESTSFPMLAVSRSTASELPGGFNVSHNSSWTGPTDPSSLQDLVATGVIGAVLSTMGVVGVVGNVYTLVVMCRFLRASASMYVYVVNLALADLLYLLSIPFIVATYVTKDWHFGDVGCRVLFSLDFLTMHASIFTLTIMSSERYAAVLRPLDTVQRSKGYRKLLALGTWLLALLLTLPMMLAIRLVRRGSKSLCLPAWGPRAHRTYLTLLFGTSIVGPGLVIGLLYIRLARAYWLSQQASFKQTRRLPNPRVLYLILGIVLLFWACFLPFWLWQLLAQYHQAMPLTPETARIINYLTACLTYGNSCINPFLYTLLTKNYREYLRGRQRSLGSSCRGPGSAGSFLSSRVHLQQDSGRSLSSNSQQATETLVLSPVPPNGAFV
Outline: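 Cloned mouse urotensin (mUR2) receptor membranes from Perkin Elmer Biosignal were immobilized in FlashPlate microplates using a proprietary coating. Each well got 19.5 μl buffer, then 0.5 μl of DMSO, reference ligand, or compound. Adding 5 μl of [125I]-Urotensin II, diluted to 5× final concentration in binding buffer, started binding. Plates were sealed with TopSeal-A and incubated 1 hour at room temperature in the dark. Wells were counted for 30 seconds each on a TopCount after a 60-second delay, and percentage inhibition was calculated.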

T10 sequence (P41146 whole entry): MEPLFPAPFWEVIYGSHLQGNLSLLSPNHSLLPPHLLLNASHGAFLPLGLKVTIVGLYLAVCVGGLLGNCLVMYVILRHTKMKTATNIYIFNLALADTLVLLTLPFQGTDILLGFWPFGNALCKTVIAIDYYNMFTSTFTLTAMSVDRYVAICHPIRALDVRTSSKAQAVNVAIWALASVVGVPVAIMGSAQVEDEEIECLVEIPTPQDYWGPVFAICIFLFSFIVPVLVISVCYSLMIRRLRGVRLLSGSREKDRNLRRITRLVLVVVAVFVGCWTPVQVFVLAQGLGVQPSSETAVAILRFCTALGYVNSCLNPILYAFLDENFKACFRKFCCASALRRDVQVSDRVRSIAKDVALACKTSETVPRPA
T4 sequence (P32245 whole entry): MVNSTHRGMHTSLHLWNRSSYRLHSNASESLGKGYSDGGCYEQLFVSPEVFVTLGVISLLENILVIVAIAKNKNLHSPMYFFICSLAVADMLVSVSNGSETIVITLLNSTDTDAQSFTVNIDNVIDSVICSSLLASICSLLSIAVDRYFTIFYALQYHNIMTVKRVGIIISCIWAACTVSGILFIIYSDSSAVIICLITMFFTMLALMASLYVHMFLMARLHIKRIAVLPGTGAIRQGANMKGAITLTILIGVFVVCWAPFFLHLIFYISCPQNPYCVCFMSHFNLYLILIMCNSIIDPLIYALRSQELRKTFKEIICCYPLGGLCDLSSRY
T8 sequence (P25103 whole entry): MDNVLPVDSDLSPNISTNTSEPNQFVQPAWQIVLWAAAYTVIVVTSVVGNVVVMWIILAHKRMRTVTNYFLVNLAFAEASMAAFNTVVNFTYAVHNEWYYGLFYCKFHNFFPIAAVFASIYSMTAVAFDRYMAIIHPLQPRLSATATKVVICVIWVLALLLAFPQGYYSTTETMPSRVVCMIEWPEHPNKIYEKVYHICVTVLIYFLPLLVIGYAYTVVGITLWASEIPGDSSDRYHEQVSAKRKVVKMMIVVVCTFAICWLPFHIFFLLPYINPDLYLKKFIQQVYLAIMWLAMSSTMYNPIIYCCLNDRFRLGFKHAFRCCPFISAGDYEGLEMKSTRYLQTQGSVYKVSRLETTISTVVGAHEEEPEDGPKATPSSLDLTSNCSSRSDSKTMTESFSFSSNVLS
T7 sequence (P35372 whole entry): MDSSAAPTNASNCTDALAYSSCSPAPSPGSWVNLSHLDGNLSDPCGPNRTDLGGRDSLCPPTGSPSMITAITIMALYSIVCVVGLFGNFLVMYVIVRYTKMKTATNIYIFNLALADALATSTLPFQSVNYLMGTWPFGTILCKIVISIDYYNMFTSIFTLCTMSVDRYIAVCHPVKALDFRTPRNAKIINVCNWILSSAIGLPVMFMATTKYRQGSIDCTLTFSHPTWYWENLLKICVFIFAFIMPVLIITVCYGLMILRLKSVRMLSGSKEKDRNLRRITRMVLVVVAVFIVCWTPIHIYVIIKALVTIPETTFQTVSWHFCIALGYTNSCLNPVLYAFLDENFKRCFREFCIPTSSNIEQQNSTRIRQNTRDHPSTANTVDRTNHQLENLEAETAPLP
T5 sequence (P33032 whole entry): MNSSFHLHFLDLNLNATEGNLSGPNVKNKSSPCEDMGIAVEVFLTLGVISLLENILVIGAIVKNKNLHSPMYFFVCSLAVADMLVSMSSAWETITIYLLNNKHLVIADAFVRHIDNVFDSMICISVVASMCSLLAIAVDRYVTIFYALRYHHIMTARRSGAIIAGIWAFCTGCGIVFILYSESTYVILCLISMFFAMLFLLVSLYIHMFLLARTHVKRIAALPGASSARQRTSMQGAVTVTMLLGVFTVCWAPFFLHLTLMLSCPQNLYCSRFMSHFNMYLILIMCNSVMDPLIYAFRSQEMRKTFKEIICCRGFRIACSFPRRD
T2 sequence (P41145 whole entry): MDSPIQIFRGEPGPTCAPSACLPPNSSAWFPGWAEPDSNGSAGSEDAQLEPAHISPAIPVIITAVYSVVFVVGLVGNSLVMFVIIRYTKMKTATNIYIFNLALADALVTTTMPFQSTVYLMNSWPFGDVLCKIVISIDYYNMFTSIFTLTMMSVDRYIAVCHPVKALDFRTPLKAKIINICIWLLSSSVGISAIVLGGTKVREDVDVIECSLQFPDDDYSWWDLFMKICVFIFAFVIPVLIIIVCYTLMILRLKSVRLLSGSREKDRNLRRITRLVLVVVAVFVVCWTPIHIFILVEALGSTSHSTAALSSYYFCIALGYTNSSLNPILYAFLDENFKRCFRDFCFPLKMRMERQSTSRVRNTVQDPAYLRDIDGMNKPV
T3 sequence (P41968 whole entry): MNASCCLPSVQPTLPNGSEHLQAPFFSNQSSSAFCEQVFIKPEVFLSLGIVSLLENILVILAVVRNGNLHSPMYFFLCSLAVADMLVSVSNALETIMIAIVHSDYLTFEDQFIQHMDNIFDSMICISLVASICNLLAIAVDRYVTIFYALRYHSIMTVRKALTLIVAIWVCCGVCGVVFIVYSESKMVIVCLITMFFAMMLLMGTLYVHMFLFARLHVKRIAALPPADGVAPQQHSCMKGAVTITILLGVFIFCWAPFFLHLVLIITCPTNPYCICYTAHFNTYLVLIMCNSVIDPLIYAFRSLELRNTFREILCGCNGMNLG
T1 sequence (P41143 whole entry): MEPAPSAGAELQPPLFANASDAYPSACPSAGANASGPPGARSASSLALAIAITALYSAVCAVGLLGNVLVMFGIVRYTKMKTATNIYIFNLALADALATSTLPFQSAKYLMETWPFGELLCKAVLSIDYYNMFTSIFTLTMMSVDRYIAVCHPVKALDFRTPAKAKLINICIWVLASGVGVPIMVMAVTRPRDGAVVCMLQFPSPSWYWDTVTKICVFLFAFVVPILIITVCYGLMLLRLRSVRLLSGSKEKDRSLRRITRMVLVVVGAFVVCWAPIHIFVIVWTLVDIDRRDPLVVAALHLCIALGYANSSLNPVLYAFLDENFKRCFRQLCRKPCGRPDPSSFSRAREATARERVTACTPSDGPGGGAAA
T6 sequence (Q99705 whole entry): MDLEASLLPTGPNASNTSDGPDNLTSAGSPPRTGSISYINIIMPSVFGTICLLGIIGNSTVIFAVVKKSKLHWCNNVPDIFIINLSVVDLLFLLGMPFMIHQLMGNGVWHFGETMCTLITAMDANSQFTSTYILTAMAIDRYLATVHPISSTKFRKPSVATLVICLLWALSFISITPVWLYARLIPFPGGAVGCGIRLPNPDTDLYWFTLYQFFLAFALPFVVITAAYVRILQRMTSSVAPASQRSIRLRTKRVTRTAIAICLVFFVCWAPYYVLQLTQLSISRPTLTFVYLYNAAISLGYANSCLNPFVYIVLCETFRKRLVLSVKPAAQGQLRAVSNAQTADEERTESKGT

Compound | A1: inhibition of radioligand binding, human δ-opioid (DOP) (Human δ-opioid (DOP)) | A2: inhibition of radioligand binding, human κ-opioid (KOP) (Human κ-Opioid (KOP)) | A3: inhibition of radioligand binding, human melanocortin (MC3) (Human Melanocortin (MC3)) | A4: inhibition of radioligand binding, human melanocortin (MC4) (Human Melanocortin (MC4)) | A5: inhibition of radioligand binding, human melanocortin (MC5) (Human melanocortin (MC5)) | A6: inhibition of radioligand binding, human melanin-concentrating hormone (MCH1) [1] | A7: inhibition of radioligand binding, human μ-opioid (MOP) (Human μ-opioid (MOP)) | A8: inhibition of radioligand binding, human neurokinin (NK1) (Human neurokinin (NK1)) | A9: inhibition of radioligand binding, human neuropeptide Y (NPY-Y1) [2] | A10: inhibition of radioligand binding, human opioid (ORL1) (Human opioid (ORL1)) | A11: inhibition of radioligand binding, mouse urotensin (mUR2) (Mouse urotensin (mUR2)) | further results
CSC1OC(COCc2ccc3ccccc3c2)C(O)C(OCc2ccc3ccccc3c2)C1NC(=O)CCCN (stereo not shown) [compound 320] | − (“−” indicates less than 50% inhibition at 10 μM) | − (“−” indicates less than 50% inhibition at 10 μM) | − (“−” indicates less than 50% inhibition at 10 μM) | − (“−” indicates less than 50% inhibition at 10 μM) | + (“+” indicates greater than 50% inhibition at 10 μM) | − (“−” indicates less than 50% inhibition at 10 μM) | − (“−” indicates less than 50% inhibition at 10 μM) | + (“+” indicates greater than 50% inhibition at 10 μM) | − (“−” indicates less than 50% inhibition at 10 μM) | − (“−” indicates less than 50% inhibition at 10 μM) | − (“−” indicates less than 50% inhibition at 10 μM) | –
N=C(N)NCCC(=O)N[C@H]1C(OCc2ccc(Cl)cc2)O[C@H](COCc2ccc3ccccc3c2)[C@@H](O)[C@@H]1OCc1ccc(-c2ccccc2)cc1 (stereo partly shown) [compound 533] | − (“−” indicates less than 50% inhibition at 10 μM) | − (“−” indicates less than 50% inhibition at 10 μM) | + (“+” indicates greater than 50% inhibition at 10 μM) | + (“+” indicates greater than 50% inhibition at 10 μM) | + (“+” indicates greater than 50% inhibition at 10 μM) | + (“+” indicates greater than 50% inhibition at 10 μM) | − (“−” indicates less than 50% inhibition at 10 μM) | + (“+” indicates greater than 50% inhibition at 10 μM) | − (“−” indicates less than 50% inhibition at 10 μM) | − (“−” indicates less than 50% inhibition at 10 μM) | − (“−” indicates less than 50% inhibition at 10 μM) | –
CSC1OC(COCc2cccc(N)c2)C(O)C(OCc2ccc(Cl)cc2)C1NC(=O)c1c[nH]c2ccccc12 (stereo not shown) [compound 334] | − (“−” indicates less than 50% inhibition at 10 μM) | − (“−” indicates less than 50% inhibition at 10 μM) | − (“−” indicates less than 50% inhibition at 10 μM) | − (“−” indicates less than 50% inhibition at 10 μM) | − (“−” indicates less than 50% inhibition at 10 μM) | − (“−” indicates less than 50% inhibition at 10 μM) | − (“−” indicates less than 50% inhibition at 10 μM) | + (“+” indicates greater than 50% inhibition at 10 μM) | − (“−” indicates less than 50% inhibition at 10 μM) | − (“−” indicates less than 50% inhibition at 10 μM) | − (“−” indicates less than 50% inhibition at 10 μM) | –
N=C(N)NCC(=O)N[C@H]1C(OCc2ccc(Cl)cc2)O[C@H](COCc2ccc(Cl)cc2)[C@@H](O)[C@@H]1OCc1ccc(-c2ccccc2)cc1 (stereo partly shown) [compound 521] | − (“−” indicates less than 50% inhibition at 10 μM) | − (“−” indicates less than 50% inhibition at 10 μM) | + (“+” indicates greater than 50% inhibition at 10 μM) | + (“+” indicates greater than 50% inhibition at 10 μM) | + (“+” indicates greater than 50% inhibition at 10 μM) | + (“+” indicates greater than 50% inhibition at 10 μM) | − (“−” indicates less than 50% inhibition at 10 μM) | + (“+” indicates greater than 50% inhibition at 10 μM) | − (“−” indicates less than 50% inhibition at 10 μM) | – | − (“−” indicates less than 50% inhibition at 10 μM) | A10: inhibition of radioligand binding, human opioid (ORL1) (Human opioid (ORL1); 10 µM): + (“+” indicates greater than 50% inhibition at 10 μM)
CO[C@H]1[C@H](O)[C@@H](COCc2ccc3ccccc3c2)OC(OCc2ccc(-c3ccccc3)cc2)[C@@H]1NC(=O)CNC(=N)N (stereo partly shown) [compound 55] | – | – | – | – | – | – | – | – | – | – | – | A1 radioligand binding inhibition (Human δ-opioid (DOP); human δ-opioid (DOP) membranes): − (“−” indicates less than 50% inhibition at 10 μM); A2 radioligand binding inhibition (Human κ-Opioid (KOP); human κ-opioid (KOP) membranes): + (“+” indicates greater than 50% inhibition at 10 μM); A3 radioligand binding inhibition (Human Melanocortin (MC3); human melanocortin MC3 membranes): + (“+” indicates greater than 50% inhibition at 10 μM); A4 radioligand binding inhibition (Human Melanocortin (MC4); human melanocortin MC4 membranes): + (“+” indicates greater than 50% inhibition at 10 μM); A5 radioligand binding inhibition (Human melanocortin (MC5); human melanocortin MC5 membranes): + (“+” indicates greater than 50% inhibition at 10 μM); A6 radioligand binding inhibition ([1]; human MCH1 membranes): + (“+” indicates greater than 50% inhibition at 10 μM); A7 radioligand binding inhibition (Human μ-opioid (MOP); human μ-opioid (MOP) membranes): + (“+” indicates greater than 50% inhibition at 10 μM); A8 radioligand binding inhibition (Human neurokinin (NK1); human neurokinin NK1 membranes): + (“+” indicates greater than 50% inhibition at 10 μM); A9 radioligand binding inhibition ([2]; human NPY-Y1 membranes): − (“−” indicates less than 50% inhibition at 10 μM); A10 radioligand binding inhibition (Human opioid (ORL1); human ORL1 membranes): + (“+” indicates greater than 50% inhibition at 10 μM); A11 radioligand binding inhibition (Mouse urotensin (mUR2); mouse urotensin mUR2 membranes): − (“−” indicates less than 50% inhibition at 10 μM)
